Assay results published in PubChem BioAssay (NCI).
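Interpolation was linear, between the two tested concentrations surrounding the appropriate level; five concentrations were tested over 48 hours in 96-well plates. At the TGI there is no net growth.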

What was measured:
Assay in all cases: growth of human tumour cells (NCI), 48 h
[1] = test system: RXF-631 renal
[2] = test system: SF-268 CNS
[3] = test system: RXF 393 renal
[4] = test system: IGROV1 ovarian
[5] = test system: HT29 colon
[6] = test system: UACC-62 melanoma
[7] = test system: SNB-75 CNS
[8] = test system: OVCAR-5 ovarian
[9] = test system: COLO 205 colon
[10] = test system: SN12C renal
[11] = test system: NCI-H226 lung
[12] = test system: MALME-3M melanoma
[13] = test system: DMS 114 small cell lung
[14] = test system: OVCAR-3 ovarian
[15] = test system: SK-MEL-2 melanoma
[16] = test system: HCT-15 colon
[17] = test system: M19-MEL melanoma
[18] = test system: DLD-1 colon
[19] = test system: SF-295 CNS
[20] = test system: A498 renal
[21] = test system: DMS 273 small cell lung
[22] = test system: CAKI-1 renal
[23] = test system: SK-OV-3 ovarian
[24] = test system: HL-60(TB) leukemia
[25] = test system: K-562 leukemia
[26] = test system: SNB-78 CNS
[27] = test system: UO-31 renal
[28] = test system: NCI-H460 lung
[29] = test system: KM12 colon
[30] = test system: SF-539 CNS
[31] = test system: NCI-H23 lung
[32] = test system: SK-MEL-28 melanoma
[33] = test system: HOP-92 NSCLC
[34] = test system: RPMI-8226 leukemia
[35] = test system: A549 NSCLC
[36] = test system: UACC-257 melanoma
[37] = test system: KM20L2 colon
[38] = test system: 786-0 renal
[39] = test system: HOP-18 NSCLC
[40] = test system: LXFL 529 NSCLC
[41] = test system: CCRF-CEM leukemia
[42] = test system: SW-620 colon
[43] = test system: LOX IMVI melanoma
[44] = test system: MOLT-4 leukemia
[45] = test system: ACHN renal
[46] = test system: HOP-62 NSCLC
[47] = test system: SK-MEL-5 melanoma
[48] = test system: U251 CNS
[49] = test system: XF 498 CNS
[50] = test system: M14 melanoma
[51] = test system: OVCAR-4 ovarian
[52] = test system: HCC-2998 colon
[53] = test system: NCI-H522 lung
[54] = test system: EKVX NSCLC
[55] = test system: SNB-19 CNS
[56] = test system: OVCAR-8 ovarian
[57] = test system: TK-10 renal
[58] = test system: SR leukemia
[59] = test system: HCT-116 colon

Question: What does the source list for CCOC(=O)NC1C2CC(=O)C(O2)C1OCc1ccccc1 (stereo not drawn)?
Answer: TGI [1]: > 100 µM; TGI [2]: > 100 µM; TGI [3]: > 100 µM; TGI [4]: > 100 µM; TGI [5]: > 100 µM; TGI [6]: > 100 µM; TGI [7]: > 100 µM; TGI [8]: > 100 µM; TGI [9]: > 100 µM; TGI [10]: > 100 µM; TGI [11]: > 100 µM; TGI [12]: > 100 µM; TGI [13]: > 100 µM; TGI [14]: > 100 µM; TGI [15]: > 100 µM; TGI [16]: > 100 µM; TGI [17]: > 100 µM; TGI [18]: > 100 µM; TGI [19]: > 100 µM; TGI [20]: > 100 µM; TGI [21]: > 100 µM; TGI [22]: > 100 µM; TGI [23]: > 100 µM; TGI [24]: > 100 µM; TGI [25]: > 100 µM; TGI [26]: > 100 µM; TGI [27]: > 100 µM; TGI [28]: > 100 µM; TGI [29]: > 100 µM; TGI [30]: > 100 µM; TGI [31]: > 100 µM; TGI [32]: > 100 µM; TGI [33]: > 100 µM; TGI [34]: > 100 µM; TGI [35]: > 100 µM; TGI [36]: > 100 µM; TGI [37]: > 100 µM; TGI [38]: > 100 µM; TGI [39]: > 100 µM; TGI [40]: > 100 µM; TGI [41]: > 100 µM; TGI [42]: > 100 µM; TGI [43]: > 100 µM; TGI [44]: > 100 µM; TGI [45]: > 100 µM; TGI [46]: > 100 µM; TGI [47]: > 100 µM; TGI [48]: > 100 µM; TGI [49]: > 100 µM; TGI [50]: > 100 µM; TGI [51]: > 100 µM; TGI [52]: > 100 µM

Question: How did the TGI [1] turn out when NC(N)=N/N=C(/CC1OC(=O)c2ccccc21)c1ccc2ccccc2c1 (stereo not drawn) was run?
Answer: 65.2 µM

Question: And the TGI [2]?
Answer: 31.8 µM

Question: What about the TGI [4] of the same compound?
Answer: 47.2 µM

Question: And the TGI [5]?
Answer: 45.7 µM

Question: What about the TGI [6] of the same compound?
Answer: 34.7 µM

Question: And the TGI [7]?
Answer: 47.7 µM

Question: What about the TGI [8] of the same compound?
Answer: > 100 µM

Question: What about the TGI [9] of the same compound?
Answer: 39 µM

Question: What about the TGI [10] of the same compound?
Answer: 42.2 µM

Question: What about the TGI [11] of the same compound?
Answer: 32.4 µM

Question: What about the TGI [12] of the same compound?
Answer: 30 µM

Question: And the TGI [13]?
Answer: 25.6 µM

Question: What about the TGI [14] of the same compound?
Answer: 38.3 µM

Question: And the TGI [15]?
Answer: > 100 µM

Question: What about the TGI [16] of the same compound?
Answer: 31.7 µM

Question: What about the TGI [17] of the same compound?
Answer: 31.6 µM

Question: And the TGI [53]?
Answer: 28.8 µM

Question: What about the TGI [18] of the same compound?
Answer: 28 µM

Question: And the TGI [19]?
Answer: > 100 µM

Question: And the TGI [20]?
Answer: 33.4 µM

Question: What about the TGI [21] of the same compound?
Answer: 44.9 µM

Question: What about the TGI [22] of the same compound?
Answer: > 100 µM

Question: And the TGI [23]?
Answer: 74 µM

Question: What about the TGI [24] of the same compound?
Answer: 41.9 µM

Question: And the TGI [25]?
Answer: 67 µM

Question: And the TGI [26]?
Answer: > 100 µM

Question: And the TGI [27]?
Answer: 32.7 µM

Question: And the TGI [28]?
Answer: 32.5 µM

Question: And the TGI [54]?
Answer: 52.9 µM

Question: What about the TGI [29] of the same compound?
Answer: 26.6 µM

Question: And the TGI [55]?
Answer: > 100 µM

Question: And the TGI [30]?
Answer: 31.9 µM

Question: And the TGI [31]?
Answer: 88.6 µM

Question: And the TGI [32]?
Answer: 35.2 µM

Question: What about the TGI [33] of the same compound?
Answer: 55 µM

Question: What about the TGI [34] of the same compound?
Answer: 48 µM

Question: What about the TGI [36] of the same compound?
Answer: 28.7 µM

Question: What about the TGI [37] of the same compound?
Answer: 57.2 µM

Question: And the TGI [38]?
Answer: 32.4 µM

Question: What about the TGI [39] of the same compound?
Answer: 43.3 µM

Question: And the TGI [40]?
Answer: 27.7 µM

Question: And the TGI [41]?
Answer: 43.8 µM

Question: What about the TGI [43] of the same compound?
Answer: > 100 µM

Question: What about the TGI [44] of the same compound?
Answer: 79.4 µM

Question: And the TGI [45]?
Answer: 33.7 µM

Question: And the TGI [46]?
Answer: 42.1 µM

Question: And the TGI [56]?
Answer: 31.5 µM

Question: And the TGI [47]?
Answer: 35.8 µM

Question: And the TGI [57]?
Answer: 35 µM

Question: What about the TGI [48] of the same compound?
Answer: 30.1 µM

Question: What about the TGI [49] of the same compound?
Answer: 20.9 µM

Question: And the TGI [50]?
Answer: 30.3 µM

Question: And the TGI [58]?
Answer: 33.6 µM

Question: And the TGI [51]?
Answer: 37.4 µM

Question: What about the TGI [52] of the same compound?
Answer: 31.1 µM

Question: COC(=O)c1cc(-c2ccc(OC)c(OC)c2)oc1-c1ccc(OC)c(OC)c1 was tested. Which TGI [1] did it give?
Answer: > 100 µM

Question: And the TGI [2]?
Answer: > 100 µM

Question: And the TGI [3]?
Answer: 72.7 µM

Question: What about the TGI [4] of the same compound?
Answer: > 100 µM

Question: What about the TGI [5] of the same compound?
Answer: > 100 µM

Question: What about the TGI [6] of the same compound?
Answer: > 100 µM

Question: What about the TGI [7] of the same compound?
Answer: > 100 µM

Question: What about the TGI [8] of the same compound?
Answer: > 100 µM

Question: What about the TGI [9] of the same compound?
Answer: 39.4 µM

Question: What about the TGI [10] of the same compound?
Answer: 93.6 µM

Question: What about the TGI [11] of the same compound?
Answer: > 100 µM

Question: And the TGI [12]?
Answer: > 100 µM

Question: What about the TGI [13] of the same compound?
Answer: 95.5 µM

Question: And the TGI [14]?
Answer: > 100 µM

Question: And the TGI [15]?
Answer: > 100 µM

Question: What about the TGI [16] of the same compound?
Answer: > 100 µM

Question: And the TGI [17]?
Answer: > 100 µM

Question: What about the TGI [18] of the same compound?
Answer: > 100 µM

Question: And the TGI [19]?
Answer: > 100 µM

Question: And the TGI [59]?
Answer: > 100 µM

Question: What about the TGI [20] of the same compound?
Answer: 59.5 µM

Question: What about the TGI [21] of the same compound?
Answer: > 100 µM

Question: What about the TGI [22] of the same compound?
Answer: > 100 µM

Question: What about the TGI [23] of the same compound?
Answer: > 100 µM

Question: And the TGI [24]?
Answer: > 100 µM

Question: And the TGI [25]?
Answer: > 100 µM

Question: And the TGI [26]?
Answer: > 100 µM

Question: What about the TGI [27] of the same compound?
Answer: > 100 µM

Question: What about the TGI [28] of the same compound?
Answer: > 100 µM

Question: What about the TGI [54] of the same compound?
Answer: > 100 µM

Question: And the TGI [29]?
Answer: > 100 µM

Question: What about the TGI [30] of the same compound?
Answer: 96.2 µM

Question: And the TGI [31]?
Answer: > 100 µM

Question: What about the TGI [32] of the same compound?
Answer: > 100 µM

Question: And the TGI [33]?
Answer: 71.4 µM

Question: And the TGI [34]?
Answer: > 100 µM

Question: And the TGI [35]?
Answer: > 100 µM

Question: And the TGI [36]?
Answer: > 100 µM

Question: What about the TGI [37] of the same compound?
Answer: > 100 µM

Question: And the TGI [38]?
Answer: > 100 µM

Question: What about the TGI [39] of the same compound?
Answer: > 100 µM

Question: What about the TGI [40] of the same compound?
Answer: > 100 µM

Question: What about the TGI [41] of the same compound?
Answer: > 100 µM

Question: What about the TGI [42] of the same compound?
Answer: > 100 µM

Question: And the TGI [43]?
Answer: > 100 µM

Question: What about the TGI [44] of the same compound?
Answer: > 100 µM

Question: What about the TGI [45] of the same compound?
Answer: > 100 µM

Question: And the TGI [46]?
Answer: > 100 µM

Question: What about the TGI [56] of the same compound?
Answer: > 100 µM

Question: And the TGI [57]?
Answer: > 100 µM

Question: And the TGI [48]?
Answer: > 100 µM

Question: What about the TGI [49] of the same compound?
Answer: > 100 µM

Question: And the TGI [50]?
Answer: > 100 µM

Question: And the TGI [58]?
Answer: > 100 µM

Question: What about the TGI [51] of the same compound?
Answer: > 100 µM

Question: What about the TGI [52] of the same compound?
Answer: > 100 µM
